Source: patent publication US20120322654A1, “SYNERGISTIC FUNGICIDAL MIXTURES” (BASF SE, priority 2010, published 2012)

System: Septoria tritici
Assay: Microtiter plate test, activity against Septoria tritici (leaf blotch on wheat)
Format: cell-based
Conditions: MTP, absorption at 405 nm 7 days after inoculation, 18° C
Method: The active compounds were formulated separately as a stock solution having a concentration of 10000 ppm in dimethyl sulfoxide.
Activity Against Septoria tritici, the Causal Agent of Leaf Blotch on Wheat
The stock solutions were mixed according to the ratio, pipetted onto a micro titer plate (MTP) and diluted with water to the stated concentrations. A spore suspension of Septoria tritici in an aqueous biomalt solution was then added. The plates were placed in a water vapor-saturated chamber at a temperature of 18° C. Using an absorption photometer, the MTPs were measured at 405 nm 7 days after the inoculation.
The measured parameters were compared to the growth of the active compound-free control variant (100%) and the fungus-free and active compound-free blank value to determine the relative growth in % of the pathogens in the respective active compounds.
The expected efficacies of active compound combinations were determined using Colby's formula (Colby, S. R., Calculating synergistic and antagonistic responses of herbicide combinations, Weeds, 15, pp. 20-22, 1967) and compared with the observed efficacies. […]

Question: How did the Observed efficacy (0.25 ppm) turn out when `O=C(Nc1ccccc1-c1ccc(Cl)cc1)c1cccnc1Cl` [Boscalid, boscalid] was run?
Answer: 34%

Question: With `CC1(C)C(C=C(Cl)Cl)C1C(=O)OC(C#N)c1cccc(Oc2ccccc2)c1` (stereo not drawn) [alpha-Cypermethrin, alpha-cypermethrin] as the molecule, how does the Observed efficacy (1 ppm) read?
Answer: 2%
